Read-outs that look alike come from different tables or passages of the source.
Molecular target: T1, hen egg white lysozyme (HEWL) (Gallus gallus, UniProt P00698)
T1 construct: gene LYZ
Experiment: SPR (HEWL amine-coupled on CMD gold chip, […]°C); intrinsic fluorescence quenching
Assay type: binding

T1 sequence (P00698 19-147): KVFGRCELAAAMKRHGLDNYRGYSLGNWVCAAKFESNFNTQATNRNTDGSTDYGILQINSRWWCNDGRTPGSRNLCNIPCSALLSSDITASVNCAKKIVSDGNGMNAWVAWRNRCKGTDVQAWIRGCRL

| SMILES | Kd (read-out: Kd) | Kd |
| --- | --- | --- |
| CC1(C)C=Cc2c(ccc3ccc(=O)oc23)O1 [seselin] | 46.8 µM | – |
| O=c1ccc2cc3ccoc3cc2o1 [psoralen] | – | 9.32 µM |
